Source: patent US20230248731A1, “COMPOSITION AND MEDICAMENT OF PALBOCICLIB ISETHIONATE” (NANJING GRITPHARMA CO., LTD., priority 2020, published 2023)

Legend:
[1] = Pharmacokinetics of palbociclib isethionate after single oral administration in 125 mg (Pfizer study 1036); type: in vivo, human; details: single oral 125 mg
Experimental: Existing clinical tests have also shown that the palbociclib isethionate has different bioavailability values before or after a meal. Pharmacokinetics of the palbociclib isethionate in healthy subjects after single administration were evaluated by Pfizer Pharmaceutical, an original research company. Different effects are achieved when the medicine is taken before or after a meal. Compared with administration before a meal, administration after a meal has the advantages that the Cmax value is increased by 7%, and the AUCinf value is increased by about 9%. The food prolongs the retention time of the medicine in the gastric juice, so that the bioavailability is improved. The basic reason is that as the pH environment in the stomach and intestines is different, the palbociclib isethionate has inconsistent dissolution and release conditions, resulting in different bioavailability values. Therefore, when the dissolution of the palbociclib isethionate can be improved under neutral and weakly alkaline conditions, great benefits will be brought to application of the palbociclib isethionate to the treatment of related diseases in the human body.

[2] = Solubility of palbociclib isethionate at different pH values; type: physicochemical
From the text: First, the applicant has studied the solubility of palbociclib isethionate in water, a hydrochloric acid solution with a pH of 1.0, a phosphate buffer with a pH of 6.8 and an acetate buffer with a pH of 4.5 (as shown in Table 3). […] However, the palbociclib isethionate enters the intestinal tract rapidly on an empty stomach, and the pH environment becomes neutral and weakly alkaline. As the solubility of the palbociclib isethionate is extremely low at a pH of 6.8, absorption of the palbociclib isethionate will be affected by the solubility, which is extremely unfavorable to the absorption and utilization of the palbociclib isethionate.

[3] = background statement; cited from earlier work

Increase of AUCinf, administration after a meal compared with before a meal [1] | Increase of Cmax, administration after a meal compared with before a meal [1] [%] | Solubility ([2]; acetate buffer pH 4.5) [mg/mL] | Solubility ([2]; hydrochloric acid solution pH 1.0) [mg/mL] | Solubility (in words) ([2]; pH 6.8) | Solubility ([2]; phosphate buffer pH 6.8) [mg/mL] | Solubility ([2]; water) [mg/mL] | SMILES | Solubility in water (in words) [3]
about 9% | 7 | 84.7 | 90.7 | extremely low | 0.04 | 84.8 | CC(=O)c1c(C)c2cnc(Nc3ccc(N4CCNCC4)cn3)nc2n(C2CCCC2)c1=O.O=S(=O)(O)CCO [palbociclib isethionate] | –
– | – | – | – | – | – | – | CC(=O)c1c(C)c2cnc(Nc3ccc(N4CCNCC4)cn3)nc2n(C2CCCC2)c1=O [palbociclib in a free alkali form, palbociclib] | poor solubility in water
